Laboratory results as given in patent US7087762B2, “Long-lasting antimicrobial reaction product of allantoin and formaldehyde containing a low level of free formaldehyde” (ISP Investments Inc., priority 2002, dated 2006).

Assays:
[1] = tested on: C. Albican ATTC1023; experiment: Activity against yeast and mold, 0.3% test solutions; type: cell-based, Candida albicans; set-up: key: + Growth; − No Growth
From the text: Activity against yeast and mold:

[2] = tested on: PSA (Pseudomonas aeruginosa); experiment: Preservative challenge test, nonionic emulsion; type: cell-based
Method: A typical cosmetic emulsion was prepared for microbiological challenge testing and predetermined admixtures of a methylol compound and IPBC were added at various use levels. The emulsion thus prepared had the following composition:
The challenge tests were carried out using the following microorganisms: SA, ECOLI, PSA, PC, AN and CAN, in this manner. 50 g aliquots of the test emulsion containing various amounts of the preservative admixture were inoculated with approximately 10^7–10^8 of the challenge organisms. The test samples then were stirred to disperse the challenge inoculum. The samples were incubated and assayed at 48 hours, 7, 14, 21 and 28 days. The assays were performed on 1 g of the test sample by serially diluting 10^1 to 10^6 of the original concentration. The plating medium for bacteria was Letheen agar and for fungi it was low pH Mycophil agar with Tween 20. Each plated sample was incubated for 48 hours at 37° C. for bacteria, 5 days at 25° C. for mold, and 3 days at 25° C. for fungi. After incubation, readings of the number of colonies per milliliter (cfu/ml) were made. At 21 days the test product was reinoculated with half of the original inoculum.

O=C1C(N(CO)C(=O)NCO)N(CO)C(=O)N1CO (centres unmarked) [Germall II]
Growth, C. Albican ATTC1023 [1]: −
cfu/ml, 48 hrs ([2]; 2000 ppm): <10 cfu/ml
cfu/ml, 7 days ([2]; 2000 ppm): <10 cfu/ml
cfu/ml, 14 days ([2]; 2000 ppm): <10 cfu/ml
cfu/ml, 21 days ([2]; 2000 ppm): <10 cfu/ml
cfu/ml, 28 days ([2]; 2000 ppm): <10 cfu/ml
cfu/ml, 48 hrs ([2]; 4000 ppm): <10 cfu/ml
cfu/ml, 7 days ([2]; 4000 ppm): <10 cfu/ml
cfu/ml, 14 days ([2]; 4000 ppm): <10 cfu/ml
cfu/ml, 21 days ([2]; 4000 ppm): <10 cfu/ml
cfu/ml, 28 days ([2]; 4000 ppm): <10 cfu/ml
